Tests used:
Assay type in all cases: cell-based
[1] = system: human dermal fibroblasts from Huntington's patients; experiment: Rescue of BSO-stressed fibroblasts from Huntington's patients (screen as Example A); settings: Fibroblast, BSO-stressed Huntington's fibroblasts (GM 04281), less than about 150 nM, read-out: EC50, protection against Huntington's
Summary of the method: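 Coriell Huntington's line GM 04281 plated at 3,000 cells/well and attached overnight at 37 °C. Survival was read by Calcein AM (1.2 μM, 50-70 min, RT) fluorescence at 485/525 nm, giving EC50.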

[2] = system: human dermal fibroblasts from CoQ10 deficient patients; experiment: Rescue of BSO-stressed fibroblasts from CoQ10 deficient patients (screen similar to Example A); settings: Fibroblast, BSO-stressed fibroblasts from CoQ10 deficient patients harboring a CoQ2 mutation, less than about 150 nM, read-out: EC50, protection against CoQ10 deficiency
Procedure: (§1) A culture with FRDA fibroblasts was started from a 1 ml vial with approximately 500,000 cells stored in liquid nitrogen. Cells were propagated in 10 cm cell culture dishes by splitting every third day in a ratio of 1:3 until nine plates were available. Once confluent, fibroblasts were harvested. For 54 micro titer plates (96 well-MTP) a total of 14.3 million cells (passage eight) were re-suspended in 480 ml medium, corresponding to 100 μl medium with 3,000 cells/well. The remaining cells were distributed in 10 cm cell culture plates (500,000 cells/plate) for propagation. The plates were incubated overnight at 37° C. in an atmosphere with 95% humidity and 5% CO2 to allow attachment of the cells to the culture plate.
(§2) MTP medium (243 μl) was added to a well of the microtiter plate. The test compounds were unfrozen, and 7.5 μl of a 5 mM stock solution was dissolved in the well containing 243 μl medium, resulting in a 150 μM master solution. Serial dilutions from the master solution were made. The period between the single dilution steps was kept as short as possible (generally less than 1 second).
(§3) Plates were kept overnight in the cell culture incubator. The next day, 10 μl of a 10 mM BSO solution were added to the wells, resulting in a 1 mM final BSO concentration. Forty-eight hours later, three plates were examined under a phase-contrast microscope to verify that the cells in the 0% control (wells E1-H1) were clearly dead. The medium from all plates was discarded, and the remaining liquid was removed by gently tapping the plate inversed onto a paper towel.
(§4) 100 μl of PBS containing 1.2 μM Calcein AM were then added to each well. The plates were incubated for 50-70 minutes at room temperature. After that time the PBS was discarded, the plate gently tapped on a paper towel and fluorescence (excitation/emission wavelengths of 485 nm and 525 nm, respectively) was read on a Gemini fluorescence reader. Data was imported into Microsoft Excel (EXCEL is a registered trademark of Microsoft Corporation for a spreadsheet program) and used to calculate the EC50 concentration for each compound.
Compounds of the invention were tested using a screen similar to the one described in Example A, but substituting FRDA cells with cells obtained from CoQ10 deficient patients harboring a CoQ2 mutation. The compounds were tested for their ability to rescue human dermal fibroblasts from CoQ10 deficient patients from oxidative stress.

[3] = system: Human dermal fibroblasts from Friedreich's Ataxia patients; experiment: Rescue of BSO-stressed FRDA fibroblasts (Calcein AM viability); settings: BSO-stressed FRDA fibroblasts (GM04078), less than about 150 nM, read-out: EC50, protection against FRDA
Summary of the method: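 Patient FRDA fibroblasts (GM04078) seeded at 3,000 cells/well, given serially diluted compound from a 150 μM master solution, then stressed next day with 1 mM BSO.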

[4] = system: human dermal fibroblasts from Parkinson's Disease patients; experiment: Rescue of BSO-stressed fibroblasts from Parkinson's Disease patients (screen as Example A); settings: Fibroblast, BSO-stressed Parkinson's Disease fibroblasts (AG20439), less than about 150 nM, read-out: EC50, protection against PD
Procedure: as §1, §2, §3, §4
Compounds of the invention were screened as described in Example A, but substituting FRDA cells with Parkinson's Disease (PD) cells obtained from the Coriell Cell Repositories (Camden, N.J.; repository number AG20439). The compounds were tested for their ability to rescue human dermal fibroblasts from Parkinson's Disease patients from oxidative stress.

[5] = system: human dermal fibroblasts from LHON patients; experiment: Rescue of BSO-stressed fibroblasts from LHON patients (screen as Example A); settings: Fibroblast, BSO-stressed LHON fibroblasts (GM03858), less than about 150 nM, read-out: EC50, protection against LHON
Summary of the method: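 LHON patient fibroblasts (Coriell GM03858) at 3,000 cells/well were pre-treated overnight with compounds serially diluted from a 150 μM master solution. Surviving cells were stained with 1.2 μM Calcein AM for 50-70 min at RT and read by fluorescence (485/525 nm), giving EC50.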

Measured: EC50

CC1=C(C)C(=O)C(CCCC(=O)NCc2ccccc2Cl)=C(C)C1=O [N-(2-chlorobenzyl)-4-(2,4,5-trimethyl-3,6-dioxocyclohexa-1,4-dienyl)butanamide]
< 150 nM: all assays above

COc1ccccc1NC(=O)CCCC1=C(C)C(=O)C(C)=C(C)C1=O [N-(2-methoxyphenyl)-4-(2,4,5-trimethyl-3,6-dioxocyclohexa-1,4-dienyl)butanamide]
< 150 nM: all assays above

CC1=C(C)C(=O)C(CCCC(=O)N(C)c2ccc(F)cc2)=C(C)C1=O [N-(4-fluorophenyl)-N-methyl-4-(2,4,5-trimethyl-3,6-dioxocyclohexa-1,4-dienyl)butanamide]
< 150 nM: all assays above

CC1=C(C)C(=O)C(CCCC(=O)N(C)Cc2ccccc2)=C(C)C1=O [N-benzyl-N-methyl-4-(2,4,5-trimethyl-3,6-dioxocyclohexa-1,4-dienyl)butanamide]
< 150 nM: all assays above

CC1=C(C)C(=O)C(CCCC(=O)NCc2ccccc2)=C(C)C1=O [N-benzyl-4-(2,4,5-trimethyl-3,6-dioxocyclohexa-1,4-dienyl)butanamide]
not listed: [3]
< 150 nM: all other assays above

CC1=C(C)C(=O)C(CCCC(=O)NCc2ccccc2F)=C(C)C1=O [N-(2-fluorobenzyl)-4-(2,4,5-trimethyl-3,6-dioxocyclohexa-1,4-dienyl)butanamide]
< 150 nM: [1] | [2] | [4]

COc1ccc(CC(=O)NCCC2=C(C)C(=O)C(C)=C(C)C2=O)cc1 [2-(4-methoxyphenyl)-N-(2-(2,4,5-trimethyl-3,6-dioxocyclohexa-1,4-dienyl)ethyl)acetamide]
not listed: [4]
< 150 nM: all other assays above

CC1=C(C)C(=O)C(CCCC(=O)Nc2cccc(F)c2)=C(C)C1=O [N-(3-fluorophenyl)-4-(2,4,5-trimethyl-3,6-dioxocyclohexa-1,4-dienyl)butanamide]
not listed: [4]
< 150 nM: all other assays above

CC1=C(C)C(=O)C(CCNC(=O)NCc2ccc(C(F)(F)F)cc2)=C(C)C1=O [1-(4-(trifluoromethyl)benzyl)-3-(2-(2,4,5-trimethyl-3,6-dioxocyclohexa-1,4-dienyl)ethyl)urea]
not listed: [4]
< 150 nM: all other assays above

CC1=C(C)C(=O)C(CCCC(=O)NCc2cccc(F)c2)=C(C)C1=O [N-(3-fluorobenzyl)-4-(2,4,5-trimethyl-3,6-dioxocyclohexa-1,4-dienyl)butanamide]
< 150 nM: [1] | [2] | [4]

CC1=C(C)C(=O)C(CCCC(=O)NCc2cccc(Cl)c2)=C(C)C1=O [N-(3-chlorobenzyl)-4-(2,4,5-trimethyl-3,6-dioxocyclohexa-1,4-dienyl)butanamide]
not listed: [3]
< 150 nM: all other assays above

CC1=C(C)C(=O)C(CCCC(=O)Nc2ccc3c(c2)OCCO3)=C(C)C1=O [N-(2,3-dihydrobenzo[b][1,4]dioxin-6-yl)-4-(2,4,5-trimethyl-3,6-dioxocyclohexa-1,4-dienyl)butanamide]
not listed: [4]
< 150 nM: all other assays above

CC1=C(C)C(=O)C(CCCC(=O)NCCc2cccc(Cl)c2)=C(C)C1=O [N-(3-chlorophenethyl)-4-(2,4,5-trimethyl-3,6-dioxocyclohexa-1,4-dienyl)butanamide]
not listed: [3]
< 150 nM: all other assays above

Source: patent US9090576B2, “2-substituted-p-quinone derivatives for treatment of oxidative stress diseases” (Edison Pharmaceuticals, Inc., priority 2008, dated 2015)
